Consider 20 compounds from publication PMC7312458, “The Structural Basis of the Binding of Various Aminopolycarboxylates by the Periplasmic EDTA-Binding Protein EppA from Chelativorans sp. BNC1” (International Journal of Molecular Sciences, 2020).

Experiment [1] has as its target T1, EppA (Chelativorans sp. BNC1, UniProt Q11H97). In words: Isothermal titration calorimetry of wild-type EppA with chelators and metal chelates. The experiment is classed as binding. A general note: ITC needs no label: the signal is the heat of the interaction.
Experiment [2] has as its target T1, EppA. As to conditions: earlier report; cited from earlier work.
The next experiment deals with R74A EppA mutant (Chelativorans sp. BNC1, UniProt Q11H97, R74A). As to the kind of experiment: biochemical. The method, then:
(§1) All primers were ordered from Invitrogen (Carlsbad, CA, USA).
(§2) Isothermal calorimetric titrations were performed in a MicroCal iTC200 (Malvern Panalytical Ltd.; Malvern, UK). All titrations were performed at 25 °C and stirred at 750 rpm. […] EppA–ligand binding curves were corrected for heats of dilution by subtracting reference titrations of ligands at the same concentrations into a buffer without EppA. Data were fitted to a single-site model as implemented into the Origin 7 MicroCal Data Analysis software analysis package (Malvern Panalytical Ltd.; Malvern, UK) and then plotted in Excel.

The target of another experiment is R480A EppA mutant (Chelativorans sp. BNC1, UniProt Q11H97, R480A). As to the kind of experiment: biochemical. The method, then:
as §1, §2

The target of a further experiment is R56A EppA mutant (Chelativorans sp. BNC1, UniProt Q11H97, R56A). In words: biochemical. The method, then:
as §1, §2

The next experiment deals with K470A EppA mutant (Chelativorans sp. BNC1, UniProt Q11H97, K470A). In words: biochemical. The method, then:
as §1, §2

Setting [3] is: ITC, wild-type EppA, 25 °C, single replicate, n.b. = no binding.
Setting [4] is: ITC, wild-type EppA, 25 °C, single-site model, single replicate, n.b. = no binding.

Values joined by “and” are separate entries in the source; they are usually repeats but may differ in a detail not shown here. Identical values can stand only once. Like-named read-outs stand apart in the source and are kept apart here.

R480A EppA mutant, sequence (Q11H97 27-563, stated change not applied): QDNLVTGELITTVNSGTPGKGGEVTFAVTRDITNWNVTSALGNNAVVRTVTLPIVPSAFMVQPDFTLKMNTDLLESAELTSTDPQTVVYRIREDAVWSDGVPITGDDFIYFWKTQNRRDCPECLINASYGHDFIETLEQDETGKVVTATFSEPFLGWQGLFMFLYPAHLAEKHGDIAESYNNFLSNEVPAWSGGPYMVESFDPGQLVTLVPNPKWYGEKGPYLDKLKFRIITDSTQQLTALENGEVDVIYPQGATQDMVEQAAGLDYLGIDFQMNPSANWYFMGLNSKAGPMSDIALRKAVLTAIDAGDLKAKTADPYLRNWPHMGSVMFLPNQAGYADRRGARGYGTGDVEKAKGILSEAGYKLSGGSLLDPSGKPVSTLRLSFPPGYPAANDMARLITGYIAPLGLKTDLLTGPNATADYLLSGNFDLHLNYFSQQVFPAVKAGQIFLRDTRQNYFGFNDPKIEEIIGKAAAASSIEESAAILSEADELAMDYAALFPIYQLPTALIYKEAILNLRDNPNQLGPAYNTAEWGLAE
R74A EppA mutant, sequence (Q11H97 27-563, stated change not applied): as above
R56A EppA mutant, sequence (Q11H97 27-563, stated change not applied): as above
T1 sequence (Q11H97 entry or part of it): as the sequence (Q11H97 27-563, stated change not applied) above
K470A EppA mutant, sequence (Q11H97 27-563, stated change not applied): as above

Take MnEDTA: the “binding by EppA (in words)” value at EppA [1] (ITC, wild-type EppA) is given as “did not bind”. Further, on EppA [1] (setting [3]), the “∆H” value is on record as “n.b” and the “∆S” value is given as “n.b”. Further, at EppA [1] (setting [4]), the Kd (commonly the equilibrium constant for the complex coming apart) is on record as “n.b”.

Turning to `O=C(O)CN(CCN(CC(=O)O)CC(=O)O)CC(=O)O.[Mg+2]` [MgEDTA], on EppA [1], the “∆H” value was -4.028 ± 0.037 kcal/mol and the “∆S” value is listed as 16.2 cal mol^−1 K^−1.

On to `O=C([O-])CN(CCN(CC(=O)[O-])CC(=O)[O-])CC(=O)[O-].[Co+2]` [CoEDTA], for which, at EppA [1] (ITC, wild-type EppA), the “binding by EppA (in words)” value was “did not bind”. Moreover, on EppA [1] (setting [3]), the “∆H” value is on record as “n.b” and the “∆S” value was “n.b”. On EppA [1] (setting [4]), the Kd result is listed as “n.b”.

Regarding `O=C(O)CN(CCOCCOCCN(CC(=O)O)CC(=O)O)CC(=O)O` [EGTA, ethylene glycol-bis(β-aminoethylether)-N,N,N′,N′-tetraacetic acid, reference compound], at EppA [1] (setting [3]), the “∆H” value is -4.340 kcal/mol and -4.34 ± 0.114 kcal/mol; the “∆S” value is 16.40 cal mol^−1 K^−1 and 16.4 cal mol^−1 K^−1.

In the case of “Asp10: decameric polyaspartate (DDDDDDDDDD) [reference compound]”, in the experiment with EppA [1] (ITC, wild-type EppA), the “binding by EppA (in words)” value was “did not bind”. Further, in the experiment with EppA [1] (setting [3]), the “∆H” value is “n.b” and the “∆S” value is recorded as “n.b”. Besides, the dissociation constant (Kd) result with EppA [1] (setting [4]) is reported as “n.b. ^c”.

Consider `O=C(O)CN(CCN(CC(=O)O)CC(=O)O)CC(=O)O.[Cd+2]` [CdEDTA], for which the “binding by EppA (in words)” value at EppA [1] (ITC, wild-type EppA) is “did not bind”. Further, at EppA [1] (setting [3]), the “∆H” value is -0.555 ± 0.002 kcal/mol and the “∆S” value is listed as 28.1 cal mol^−1 K^−1.

Consider `O=C(O)CN(CCN(CC(=O)O)CC(=O)O)CC(=O)O.[Zn]` [ZnEDTA], for which the “binding by EppA (in words)” value on EppA [1] (ITC, wild-type EppA) is given as “did not bind”. On EppA [1] (setting [3]), the “∆H” value is recorded as “n.b” and the “∆S” value is listed as “n.b”. The Kd result at EppA [1] (setting [4]) was “n.b”.

Consider `O=C([O-])CN(CCOCCOCCN(CC(=O)O)CC(=O)O)CC(=O)[O-].[Ca+2]` [CaEGTA], for which, on EppA [1] (ITC, wild-type EppA), the “binding by EppA (in words)” value is recorded as “not”. At EppA [1] (setting [3]), the “∆H” value is recorded as “n.b” and the “∆S” value is reported as “n.b”. Further, on EppA [1] (setting [4]), the Kd entry is recorded as “n.b”.

Turning to `O=C([O-])CN(CCN(CC(=O)O)CC(=O)O)CC(=O)[O-].[Ba+2]` [BaEDTA], at EppA [1] (setting [3]), the “∆H” value is on record as “n.b” and the “∆S” value is “n.b”. At EppA [1] (setting [4]), the Kd result is reported as “n.b”.

In the case of `O=C(O)CN(CCOCCOCCN(CC(=O)O)CC(=O)O)CC(=O)O.[Sr+2]` [SrEGTA], on EppA [1] (setting [3]), the “∆H” value worked out at 0.794 ± 0.164 kcal/mol and the “∆S” value came out at 27.1 cal mol^−1 K^−1.

For `O=C([O-])CN(CCN(CC(=O)[O-])CC(=O)[O-])CC(=O)[O-].[Cu+2]` [CuEDTA], the “binding by EppA (in words)” value at EppA [1] (ITC, wild-type EppA) is on record as “did not bind”. At EppA [1] (setting [3]), the “∆H” value is “n.b” and the “∆S” value is “n.b”. In addition, the Kd result on EppA [1] (setting [4]) was “n.b”.

Turning to `O=C(O)CN(CCN(CC(=O)O)CC(=O)O)CC(=O)O` [EDTA, ethylenediaminetetraacetate], at EppA [2], the “binding by EppA (in words)” value is reported as “binds”. Further, the “∆H” value at EppA [1] was -2.283 kcal/mol and -2.283 ± 0.07 kcal/mol and -2.283 ± 0.070 kcal/mol; on R74A EppA mutant (ITC, R74A mutant, 25 °C), -1.877 kcal/mol and -1.877 ± 0.195 kcal/mol; on R480A EppA mutant (ITC, R480A mutant, 25 °C), -1.138 kcal/mol and -1.138 ± 0.089 kcal/mol; at R56A EppA mutant (ITC, R56A mutant, 25 °C), -1.802 kcal/mol and -1.802 ± 0.147 kcal/mol; at K470A EppA mutant (ITC, K470A mutant, 25 °C) it was -1.872 kcal/mol and -1.872 ± 0.117 kcal/mol. In addition, the “∆S” value is recorded as 29 cal mol^−1 K^−1 on EppA [1]; 23.9 cal mol^−1 K^−1 at R74A EppA mutant (ITC, R74A mutant, 25 °C); 30 cal mol^−1 K^−1 at R480A EppA mutant (ITC, R480A mutant, 25 °C); 25 cal mol^−1 K^−1 at R56A EppA mutant (ITC, R56A mutant, 25 °C); 28.3 cal mol^−1 K^−1 at K470A EppA mutant (ITC, K470A mutant, 25 °C). For the same compound, the Kd at EppA [1] (Kd, ITC, wild-type EppA, 25 °C, single replicate) is 9.52 ± 6.25 nM; at EppA [1] (Kd, ITC, wild-type EppA, 25 °C, single-site model, single replicate, n.b. = no binding), 9.5 ± 6 nM; at R74A EppA mutant it was 249 ± 382 nM; at R480A EppA mutant, 40.8 ± 26.5 nM; at R56A EppA mutant it was 161 ± 272 nM; at K470A EppA mutant, 27.1 ± 20.2 nM. In addition, the “reduction in EDTA binding” value on R74A EppA mutant (R74A vs wild-type EppA) came out at 26 fold; at R480A EppA mutant (R480A vs wild-type EppA), 4 fold; at R56A EppA mutant (R56A vs wild-type EppA), 17 fold; on K470A EppA mutant (K470A vs wild-type EppA) it was 3 fold.

Take `O=C(O)CN(CCN(CC(=O)O)CC(=O)O)CC(=O)O.[Eu+3]` [EuEDTA]: at EppA [1], the “∆H” value is -3.943 ± 0.105 kcal/mol and the “∆S” value turned out to be 7.72 cal mol^−1 K^−1.

With `O=C([O-])CN(CCN(CC(=O)[O-])CC(=O)[O-])CC(=O)[O-].[Ni+2]` [NiEDTA], at EppA [1] (ITC, wild-type EppA), the “binding by EppA (in words)” value is reported as “did not bind”. For the same compound, on EppA [1] (setting [3]), the “∆H” value was “n.b” and the “∆S” value was “n.b”. The Kd result at EppA [1] (setting [4]) is “n.b”.

Take `O=C(O)CN(CCN(CC(=O)O)CC(=O)O)CC(=O)O.[Ca+2]` [CaEDTA]: on EppA [1], the “binding by EppA (in words)” value was “bound”, the “∆H” value is -2.917 ± 0.038 kcal/mol and the “∆S” value stood at 16.0 cal mol^−1 K^−1.

As for `O=C(O)CNCCNCC(=O)O` [EDDA, ethylenediamine-N,N′-diacetate, reference compound], at EppA [1], the “∆H” value is -0.851 ± 0.893 kcal/mol and the “∆S” value was 26.7 cal mol^−1 K^−1. At EppA [1] (ITC, wild-type EppA, 25 °C, single-site model, single replicate, n.b. = no binding, read-out: Kd), the Kd was 588 nM and 340 nM.

For `O=C(O)CN(CCN(CC(=O)O)CC(=O)O)CC(=O)O.[Tb+3]` [TbEDTA], at EppA [1], the “∆H” value is -0.751 ± 0.069 kcal/mol and the “∆S” value stood at 18.1 cal mol^−1 K^−1.

Turning to `O=C(O)CN(CCN(CC(=O)O)CC(=O)O)CC(=O)O.[Cr+3]` [CrEDTA], on EppA [1], the “∆H” value is -2.573 ± 0.145 kcal/mol and the “∆S” value is reported as 30.5 cal mol^−1 K^−1.

In the case of `O=C([O-])CN(CCN(CC(=O)[O-])CC(=O)[O-])CC(=O)[O-].[Fe+3]` [FeEDTA], the “binding by EppA (in words)” value on EppA [1] (ITC, wild-type EppA) was “did not bind”. On EppA [1] (setting [3]), the “∆H” value was “n.b” and the “∆S” value was “n.b”. Besides, the Kd result on EppA [1] (setting [4]) is “n.b”.

Regarding `O=C(O)CN(CCN(CC(=O)O)CC(=O)O)CC(=O)O.[Sr+2]` [SrEDTA], on EppA [1], the “∆H” value was -4.392 ± 0.118 kcal/mol and the “∆S” value stood at 27.1 cal mol^−1 K^−1.
